Results taken from ChEMBL document CHEMBL2074332, “Molecular and physiological evidence for multifunctionality of carnitine/organic cation transporter OCTN2” (Mol Pharmacol, 2001).
Blank lines part the entries; values can stand above or below the compound they belong to.

Tests used:
[1] = target: T1, OCTN2 (organic cation/carnitine transporter 2) (Mus musculus, UniProt Q9Z0E8); test: TP_TRANSPORTER: inhibition of Carnitine uptake (Carnitine: 0.01 uM, Acetyl-beta-methylcholine: 500 uM) in OCTN2-expressing HEK293 cells; format: functional, cell-based; design: scale not given: the % may be the effect or the level left; settings: human, HEK293 cells that express OCTN2, probe carnitine; read-out: Activity
T1 sequence (Q9Z0E8 whole entry): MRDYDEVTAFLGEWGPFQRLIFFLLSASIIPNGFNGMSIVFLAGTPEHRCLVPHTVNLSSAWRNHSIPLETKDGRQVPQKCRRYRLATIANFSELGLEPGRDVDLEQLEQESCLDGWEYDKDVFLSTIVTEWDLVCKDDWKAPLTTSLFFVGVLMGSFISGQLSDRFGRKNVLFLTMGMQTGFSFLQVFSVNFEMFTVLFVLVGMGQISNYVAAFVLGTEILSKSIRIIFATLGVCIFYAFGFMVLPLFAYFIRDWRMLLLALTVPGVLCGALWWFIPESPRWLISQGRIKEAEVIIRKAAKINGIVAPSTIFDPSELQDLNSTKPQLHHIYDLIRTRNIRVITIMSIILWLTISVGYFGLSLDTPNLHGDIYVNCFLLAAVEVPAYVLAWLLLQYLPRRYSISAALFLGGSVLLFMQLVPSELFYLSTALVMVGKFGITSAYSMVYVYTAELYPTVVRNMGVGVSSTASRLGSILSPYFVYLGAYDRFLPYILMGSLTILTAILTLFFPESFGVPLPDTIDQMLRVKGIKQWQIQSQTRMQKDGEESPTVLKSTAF

[2] = target: T1, OCTN2 (organic cation/carnitine transporter 2); test: TP_TRANSPORTER: inhibition of Carnitine uptake (Carnitine: 0.01 uM, MPP+: 500 uM) in OCTN2-expressing HEK293 cells; format: functional, cell-based; design: scale not given: the % may be the effect or the level left; settings: human, HEK293 cells that express OCTN2, probe carnitine; read-out: Activity
[3] = target: T2, Organic cation/carnitine transporter 2 (Mus musculus, UniProt Q9Z0E8); test: TP_TRANSPORTER: uptake in OCTN2-expressing HEK293 cells; format: functional, cell-based; settings: human
T2 sequence (Q9Z0E8 whole entry): T1 sequence (Q9Z0E8 whole entry)

[4] = target: T1, OCTN2 (organic cation/carnitine transporter 2); test: TP_TRANSPORTER: inhibition of Carnitine uptake (Carnitine: 0.01 uM, Acetylcholine: 5000 uM) in OCTN2-expressing HEK293 cells; format: functional, cell-based; design: scale not given: the % may be the effect or the level left; settings: human, HEK293 cells that express OCTN2, probe carnitine; read-out: Activity
[5] = target: T2, Organic cation/carnitine transporter 2; test: TP_TRANSPORTER: inhibition of Carnitine uptake (Carnitine: 0.01 uM, alpha-KG: 500 uM) in OCTN2-expressing HEK293 cells; format: functional, cell-based; settings: human, hek293, 500 µM
[6] = target: T2, Organic cation/carnitine transporter 2; test: TP_TRANSPORTER: inhibition of Carnitine uptake (Carnitine: 0.01 uM, PAH: 500 uM) in OCTN2-expressing HEK293 cells; format: functional, cell-based; settings: human, hek293, 500 µM
[7] = target: T1, OCTN2 (organic cation/carnitine transporter 2); test: in vitro; settings: human, HEK293 cells that express OCTN2, probe carnitine
Description: TP_TRANSPORTER: inhibition of Carnitine uptake (Carnitine: 0.01 uM, Choline: 500 uM) in OCTN2-expressing HEK293 cells

[8] = target: T1, OCTN2 (organic cation/carnitine transporter 2); test: TP_TRANSPORTER: inhibition of Carnitine uptake (Carnitine: 0.01 uM, Diphenhydramine: 500 uM) in OCTN2-expressing HEK293 cells; format: functional, cell-based; design: scale not given: the % may be the effect or the level left; settings: human, HEK293 cells that express OCTN2, probe carnitine; read-out: Activity
[9] = target: T1, OCTN2 (organic cation/carnitine transporter 2); test: in vitro; settings: human, HEK293 cells that express OCTN2, probe carnitine; remark: listed apart in the source
Description: TP_TRANSPORTER: inhibition of Carnitine uptake (Carnitine: 0.01 uM, Dapamine: 5000 uM) in OCTN2-expressing HEK293 cells

[10] = target: T2, Organic cation/carnitine transporter 2; test: TP_TRANSPORTER: inhibition of Carnitine uptake (Carnitine: 0.01 uM, Guanidine: 500 uM) in OCTN2-expressing HEK293 cells; format: functional, cell-based; settings: human, hek293, 500 µM
[11] = target: T1, OCTN2 (organic cation/carnitine transporter 2); test: TP_TRANSPORTER: inhibition of Carnitine uptake (Carnitine: 0.01 uM, Lidocaine: 500 uM) in OCTN2-expressing HEK293 cells; format: functional, cell-based; design: scale not given: the % may be the effect or the level left; settings: human, HEK293 cells that express OCTN2, probe carnitine; read-out: Activity
[12] = target: T2, Organic cation/carnitine transporter 2; test: TP_TRANSPORTER: inhibition of Carnitine uptake (Carnitine: 0.01 uM, NMN: 500 uM) in OCTN2-expressing HEK293 cells; format: functional, cell-based; settings: human, hek293, 500 µM
[13] = target: T1, OCTN2 (organic cation/carnitine transporter 2); test: TP_TRANSPORTER: inhibition of Carnitine uptake (Carnitine: 0.01 uM, Norepinephrine: 5000 uM) in OCTN2-expressing HEK293 cells; format: functional, cell-based; design: scale not given: the % may be the effect or the level left; settings: human, HEK293 cells that express OCTN2, probe carnitine; read-out: Activity
[14] = target: T1, OCTN2 (organic cation/carnitine transporter 2); test: TP_TRANSPORTER: inhibition of Carnitine uptake (Carnitine: 0.01 uM, Procainamide: 500 uM) in OCTN2-expressing HEK293 cells; format: functional, cell-based; design: scale not given: the % may be the effect or the level left; settings: human, HEK293 cells that express OCTN2, probe carnitine; read-out: Activity
[15] = target: T1, OCTN2 (organic cation/carnitine transporter 2); test: TP_TRANSPORTER: inhibition of Carnitine uptake (Carnitine: 0.01 uM, Pyrilamine: 500 uM) in OCTN2-expressing HEK293 cells; format: functional, cell-based; design: scale not given: the % may be the effect or the level left; settings: human, HEK293 cells that express OCTN2, probe carnitine; read-out: Activity
[16] = target: T1, OCTN2 (organic cation/carnitine transporter 2); test: TP_TRANSPORTER: inhibition of Carnitine uptake (Carnitine: 0.01 uM, Quinidine: 500 uM) in OCTN2-expressing HEK293 cells; format: functional, cell-based; design: scale not given: the % may be the effect or the level left; settings: human, HEK293 cells that express OCTN2, probe carnitine; read-out: Activity
[17] = target: T1, OCTN2 (organic cation/carnitine transporter 2); test: TP_TRANSPORTER: inhibition of Carnitine uptake (Carnitine: 0.01 uM, Serotonin: 5000 uM) in OCTN2-expressing HEK293 cells; format: functional, cell-based; design: scale not given: the % may be the effect or the level left; settings: human, HEK293 cells that express OCTN2, probe carnitine; read-out: Activity
[18] = target: T1, OCTN2 (organic cation/carnitine transporter 2); test: in vitro; settings: human, HEK293 cells that express OCTN2, probe carnitine; remark: listed apart in the source
Description: TP_TRANSPORTER: inhibition of Carnitine uptake (Carnitine: 0.01 uM, TEA: 500 uM) in OCTN2-expressing HEK293 cells

[19] = target: T1, OCTN2 (organic cation/carnitine transporter 2); test: in vitro; settings: human, HEK293 cells that express OCTN2, probe carnitine; remark: listed apart in the source
Description: TP_TRANSPORTER: inhibition of Carnitine uptake (Carnitine: 0.01 uM, Thiamine: 5000 uM) in OCTN2-expressing HEK293 cells

[20] = target: T1, OCTN2 (organic cation/carnitine transporter 2); test: TP_TRANSPORTER: inhibition of Carnitine uptake (Carnitine: 0.01 uM, Verapamil: 500 uM) in OCTN2-expressing HEK293 cells; format: functional, cell-based; design: scale not given: the % may be the effect or the level left; settings: human, HEK293 cells that express OCTN2, probe carnitine; read-out: Activity

activity at 500 µM [1]: 82.5%
Compound: CC(=O)OC(C)C[N+](C)(C)C (centres undefined)

Compound: C[n+]1ccc(-c2ccccc2)cc1
activity at 500 µM [2]: 72.9%
Activity [3]: substrate [+]

Compound: CC(=O)O[C@H](CC(=O)[O-])C[N+](C)(C)C [ACETYLCARNITINE]
Activity [3]: substrate [+]

activity at 5000 µM [4]: 34.2%
Compound: CC(=O)OCC[N+](C)(C)C [ACETYLCHOLINE]

Activity [5]: is not an inhibitor [-]
Compound: O=C(O)CCC(=O)C(=O)O [ALPHA-KETOGLUTARIC ACID]

Activity [6]: is not an inhibitor [-]
Activity [3]: is not a substrate [-]
Compound: Nc1ccc(C(=O)NCC(=O)O)cc1 [AMINOHIPPURIC ACID]

activity at 500 µM [7]: 74.6%
Compound: C[N+](C)(C)CCO [CHOLINE]

activity at 500 µM [8]: 43.6%
Compound: CN(C)CCOC(c1ccccc1)c1ccccc1 [DIPHENHYDRAMINE]

activity at 5000 µM [9]: 70.9%
Compound: NCCc1ccc(O)c(O)c1 [DOPAMINE]

Activity [10]: is not an inhibitor [-]
Compound: N=C(N)N [GUANIDINE]

activity at 500 µM [11]: 57.1%
Compound: CCN(CC)CC(=O)Nc1c(C)cccc1C [LIDOCAINE]

Activity [12]: is not an inhibitor [-]
Compound: CNC(=O)c1cccnc1 [NICOTINYL METHYLAMIDE]

activity at 5000 µM [13]: 70.9%
Compound: NC[C@H](O)c1ccc(O)c(O)c1 [NOREPINEPHRINE]

activity at 500 µM [14]: 81.3%
Compound: CCN(CC)CCNC(=O)c1ccc(N)cc1 [PROCAINAMIDE]

activity at 500 µM [15]: 36.3%
Activity [3]: substrate [+]
Compound: COc1ccc(CN(CCN(C)C)c2ccccn2)cc1 [PYRILAMINE]

activity at 500 µM [16]: 6.1%
Compound: C=C[C@H]1C[N@@]2CC[C@H]1C[C@@H]2[C@@H](O)c1ccnc2ccc(OC)cc12 [QUINIDINE]

Compound: NCCc1c[nH]c2ccc(O)cc12 [SEROTONIN]
activity at 5000 µM [17]: 51.3%

activity at 500 µM [18]: 15.4%
Compound: CC[N+](CC)(CC)CC [TETRYLAMMONIUM]

activity at 5000 µM [19]: 65.9%
Compound: Cc1ncc(C[n+]2csc(CCO)c2C)c(N)n1 [THIAMINE ION]

activity at 500 µM [20]: 1.3%
Activity [3]: substrate [+]
Compound: COc1ccc(CCN(C)CCCC(C#N)(c2ccc(OC)c(OC)c2)C(C)C)cc1OC (centres undefined) [VERAPAMIL]
